Counter-ions that a name gives are not always drawn.
C=CCN1CC[C@]23c4c5ccc(O)c4O[C@H]2C(=O)CC[C@@]3(O)[C@H]1C5 [naloxone hydrochloride]
solubility in aqueous ethanol: soluble

Reference: patent US10335373B2, “Tamper resistant and dose-dumping resistant pharmaceutical dosage form” (GRÜNENTHAL GMBH, priority 2012, dated 2019)
